Test results from publication PMC7559897, “Designed Antimicrobial Peptides Against Trauma-Related Cutaneous Invasive Fungal Wound Infections” (Journal of Fungi, 2020).
In brackets after ≈: the same amount, converted by molar mass. Bridge positions count the residues as written; N and C are the ends. Peptide text beside a SMILES is read from it.

Key:
E. cloacae 6053 = type: cell-based; details: cation adjusted Mueller-Hinton broth, ~10^6 CFU/mL, 24 h, 37 °C, OD600 <0.1 in at least 3 of 4 wells, 2-128 μg/mL; shaded values previously reported ref 18
Method in brief: (§1)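 Bacteria grown overnight in trypticase soy broth at 37 °C, diluted to ~10^6 CFU/mL in 2X cation-adjusted Mueller–Hinton broth and exposed to dAMPs at 0–128 μg/mL; fungus run in potato dextrose broth. After 24 h at 37 °C, MIC was lowest concentration with ≥3 of 4 wells at OD600 <0.1.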

[1] = test system: Candida parapsilosis Y-1763; type: cell-based; details: potato dextrose broth, 24 h, 37 °C, OD600 <0.1 in at least 3 of 4 wells, dose range 2 to 128 µg/mL; shaded values previously reported ref 17
Method in brief: as §1

[2] = test system: Mucor circinelloides NRRL 3631; type: cell-based; details: potato dextrose broth, 24 h, 37 °C, OD600 <0.1 in at least 3 of 4 wells, dose range 2 to 128 µg/mL; shaded values previously reported ref 17
Method in brief: as §1

[3] = test system: Aspergillus fumigatus 9648; type: cell-based; details: potato dextrose broth, 24 h, 37 °C, OD600 <0.1 in at least 3 of 4 wells, dose range 2 to 128 µg/mL; shaded values previously reported ref 17
Method in brief: as §1

[4] = test system: Aspergillus flavus MYA-3651; type: cell-based; details: potato dextrose broth, 24 h, 37 °C, OD600 <0.1 in at least 3 of 4 wells, dose range 2 to 128 µg/mL; shaded values previously reported ref 17
Method in brief: as §1

S. epidermis ATCC 51625 = type: cell-based; details: cation adjusted Mueller-Hinton broth, ~10^6 CFU/mL, 24 h, 37 °C, OD600 <0.1 in at least 3 of 4 wells, 2-128 μg/mL; shaded values previously reported ref 18
Method in brief: as §1

E. cloacae 6054 = type: cell-based; details: cation adjusted Mueller-Hinton broth, ~10^6 CFU/mL, 24 h, 37 °C, OD600 <0.1 in at least 3 of 4 wells, 2-128 μg/mL; shaded values previously reported ref 18
Method in brief: as §1

[5] = test system: S. aureus 49525 (Xen36 luciferase); type: cell-based, Staphylococcus aureus; details: 8 μg/mL, 60 min incubation, bioluminescence, triplicates from two independent experiments
Source text: (§2) Fungal and bacterial strains were obtained from American Type Culture Collection (ATCC, Manassas, VA, USA) or the clinical isolate collection at Trideum Biosciences (Frederick, MD, USA) and are presented in Table 1 and Table 2, respectively. Bioluminescence strains of P. aeruginosa 19660, transfected with the Xen5 luciferase gene, and S. aureus ATCC R 49525TM (Wright), transfected with the Xen36 luciferase gene, were obtained from Perkin Elmer (Waltham, MA, USA).
(§3) Real-time killing of bacterial cells, P. aeruginosa or S. aureus, and mammalian cytotoxicity to assess dAMP off-target toxicity was evaluated using bioluminescent cells. The L929 fibroblast cells (ATCC, Manassas, VA, USA) were made bioluminescent by transfection with a luciferase gene. Cells (1 × 10^4 cells, 100 μL) were plated in 96-well black-walled plates and the candidate dAMPs were 2-fold serially diluted from specified concentrations in growth medium supplemented with 150 μg/mL D-luciferin. Each concentration was performed in triplicate, with the final volume being 200 μL. Imaging was performed at select times after the addition of the dAMP, and compared to concurrently run vehicle-control, using an IVIS Lumina imaging system (Caliper Life Sciences, Inc., Hopkinton, MA, USA). For imaging, the 96-well plate was positioned on the stage (12.5-cm field of view), with an open emission filter, binning of 4, and f-stop 1 and a 1-min exposure time. Monitoring bioluminescence allows assessment of the kinetics of cellular viability as there is a tight correlation between the bioluminescent signal and cell viability. Data analysis was performed using the Living Image software program (version 4.3, Caliper Life Sciences, Inc., Hopkinton, MA, USA).
(§4) Figure 3 RP553, RP556, RP557 rapidly destroy P. aeruginosa and S. aureus. The bioluminescence of viable P. aeruginosa 19,660 and S. aureus 49,525 cells was quantitated in real time with an IVIS Lumina bioimaging system. Data represent the mean ± SE of triplicate replicates from two independent experiments. For some points, the error bars are shorter than the height of the symbols.

K. pneumonia ATCC 10031 = type: cell-based, Klebsiella pneumoniae; details: cation adjusted Mueller-Hinton broth, ~10^6 CFU/mL, 24 h, 37 °C, OD600 <0.1 in at least 3 of 4 wells, 2-128 μg/mL; shaded values previously reported ref 18
Method in brief: as §1

K. pneumonia 6069 = type: cell-based, Klebsiella pneumoniae; details: cation adjusted Mueller-Hinton broth, ~10^6 CFU/mL, 24 h, 37 °C, OD600 <0.1 in at least 3 of 4 wells, 2-128 μg/mL; shaded values previously reported ref 18
Method in brief: as §1

MRSA 6381 = type: cell-based, Staphylococcus aureus; details: cation adjusted Mueller-Hinton broth, ~10^6 CFU/mL, 24 h, 37 °C, OD600 <0.1 in at least 3 of 4 wells, 2-128 μg/mL; shaded values previously reported ref 18
Method in brief: as §1

S. aureus B-767 = type: cell-based, Staphylococcus aureus; details: cation adjusted Mueller-Hinton broth, ~10^6 CFU/mL, 24 h, 37 °C, OD600 <0.1 in at least 3 of 4 wells, 2-128 μg/mL; shaded values previously reported ref 18
Method in brief: as §1

S. aureus 6061 = type: cell-based, Staphylococcus aureus; details: cation adjusted Mueller-Hinton broth, ~10^6 CFU/mL, 24 h, 37 °C, OD600 <0.1 in at least 3 of 4 wells, 2-128 μg/mL; shaded values previously reported ref 18
Method in brief: as §1

MRSA 6313 = type: cell-based, Staphylococcus aureus; details: cation adjusted Mueller-Hinton broth, ~10^6 CFU/mL, 24 h, 37 °C, OD600 <0.1 in at least 3 of 4 wells, 2-128 μg/mL; shaded values previously reported ref 18
Method in brief: as §1

MRSA ATCC 33592 = type: cell-based, Staphylococcus aureus; details: cation adjusted Mueller-Hinton broth, ~10^6 CFU/mL, 24 h, 37 °C, OD600 <0.1 in at least 3 of 4 wells, 2-128 μg/mL; shaded values previously reported ref 18
Method in brief: as §1

[6] = test system: P. aeruginosa 19660 (Xen5 luciferase); experiment: Bioluminescent time-kill assay; type: cell-based, Pseudomonas aeruginosa; details: 8 μg/mL; RP553 at 60 min; bioluminescence
Source text: as §2, §3, §4

CC[C@H](C)[C@@H]1NC(=O)CNC(=O)[C@H](CCCCN)NC(=O)[C@H](Cc2ccc(O)cc2)NC(=O)[C@@H]2CSSC[C@H](NC1=O)C(=O)N[C@@H](Cc1ccc(O)cc1)C(=O)N[C@@H](CCCCN)C(=O)N[C@@H](CCCCN)C(=O)N[C@H](C(=O)N[C@@H](CCCCN)C(N)=O)CSSC[C@H](NC(=O)[C@H](Cc1c[nH]c3ccccc13)NC(=O)[C@@H](N)CCCNC(=N)N)C(=O)N[C@@H](Cc1ccccc1)C(=O)N[C@@H](CCCCN)C(=O)N[C@@H](C(C)C)C(=O)N2 [RP556] (H-RWCFKVCYKGICYKKCK-NH2; disulfide 3-16, 7-12)
MIC against E. cloacae 6053 (E. cloacae 6053): 8 µg/mL (≈ 3.72 µM) | MIC against Candida parapsilosis Y-1763 [1]: 2 µg/mL (≈ 0.929 µM) | MIC against Mucor circinelloides NRRL 3631 [2]: 64 µg/mL (≈ 29.7 µM) | MIC against Aspergillus fumigatus 9648 [3]: 64 µg/mL (≈ 29.7 µM) | MIC against Aspergillus flavus MYA-3651 [4]: 64 µg/mL (≈ 29.7 µM) | MIC against S. epidermis ATCC 51625 (S. epidermis ATCC 51625): 4 µg/mL (≈ 1.86 µM) | MIC against E. cloacae 6054 (E. cloacae 6054): 8 µg/mL (≈ 3.72 µM) | S. aureus killing [5]: 45% | MIC against K. pneumonia ATCC 10031 (K. pneumonia ATCC 10031): 8 µg/mL (≈ 3.72 µM) | MIC against K. pneumonia 6069 (K. pneumonia 6069): 8 µg/mL (≈ 3.72 µM) | MIC against MRSA 6381 (MRSA 6381): 4 µg/mL (≈ 1.86 µM) | MIC against S. aureus B-767 (S. aureus B-767): 8 µg/mL (≈ 3.72 µM) | MIC against S. aureus 6061 (S. aureus 6061): 16 µg/mL (≈ 7.44 µM) | MIC against MRSA 6313 (MRSA 6313): 8 µg/mL (≈ 3.72 µM) | MIC against MRSA ATCC 33592 (MRSA ATCC 33592): 4 µg/mL (≈ 1.86 µM) | P. aeruginosa killing (in words) [6]: immediate eradication
